In the NIST ThermoML archive (doi:10.1021/acs.jced.5b00816):
± gives the expanded uncertainty stated by the source.

Assays:
[1] = molar heat capacity at constant pressure; settings: 101.33 kPa
[2] = Solid-liquid equilibrium temperature; settings: 101 kPa; Crystal; DTA
[3] = Molar enthalpy of transition or fusion; settings: Crystal

CNC[C@H](O)[C@@H](O)[C@H](O)[C@H](O)CO [(2R,3R,4R,5S)-6-(methylamino)hexane-1,2,3,4,5-pentaol]
molar heat capacity at constant pressure [J/K/mol], [1]
Settings	Crystal	Metastable liquid
290 K	322 ± 80	–
295 K	327 ± 81	–
300 K	333 ± 83	–
305 K	338 ± 84	–
310 K	343 ± 85	–
315 K	348 ± 86	–
320 K	353 ± 88	–
325 K	358 ± 89	–
330 K	362 ± 90	–
335 K	367 ± 91	–
340 K	372 ± 92	–
345 K	377 ± 93	–
350 K	382 ± 95	–
355 K	387 ± 96	–
360 K	392 ± 97	–
365 K	396 ± 98	–
370 K	401 ± 99	–
375 K	406 ± 100	–
380 K	411 ± 100	662 ± 160
385 K	–	664 ± 160
390 K	–	666 ± 160
395 K	–	668 ± 170
400 K	–	670 ± 170
405 K	–	671 ± 170
410 K	–	672 ± 170
415 K	–	673 ± 170
420 K	–	673 ± 170
425 K	–	674 ± 170
430 K	–	676 ± 170
435 K	–	678 ± 170
440 K	–	678 ± 170

Settings	Molar enthalpy of transition or fusion [kcal/mol]	Solid-liquid equilibrium temperature [K]
[2]	–	400.9 ± 0.3
[3]	12.3 ± 4.06	–
